In PMC4138103 (PLoS ONE, 2014):

Test system: Sprague-Dawley rats
Test: Brain amino acid analyses
Assay type: in vivo, Rattus norvegicus
Set-up: key to Glutathione, trend over total doses: D: significant dose response (for results, see Table 2); T: significant trend
Description: The right hemisphere of cerebrum was rapidly weighed and homogenized in ice cold 7% HClO4 [35] using a glass/teflon Potter-Elvehjem homogenizer (Schwaben Prazision Nordlingen type L43). α-Amino adipic acid was used as internal standard. Samples were neutralized to pH 6.5–7.5 with ice cold KOH/HCl and centrifuged for 20 min at 20 000 g and 4°C in a Sorvall RMC-14-micro centrifuge. Pellets were frozen at −40°C for later protein determination by the BCA-assay. Supernatants were stored at −40°C, filtered with Nylon-66 micro filters (mesh 0.22 µm; Nalgene) prior to HPLC analysis.
Total amino acids in extracts were analyzed, using a reversed-phase HPLC (ChromSpher 5 C18 column; length 25 cm, inner diameter 4.6 mm; Varian) fitted with a fluorescence detector (Shimadzu, Kyoto, Japan), after derivatization with o-phthaldialdehyde (OPA; Sigma). […] Each sample was eluted for 45 min with a flow rate of 0.4 ml/min. A mixture of the amino acids of interest was run as external standards at 100 µM. L-Amino acid standards for aspartic acid, glutamic acid, serine, glutamine, glycine and alanine] were obtained from Pierce (Rockford, Ill., USA), whereas taurine, γ-amino butyric acid, glutathione and α-amino adipic acid standards were from Sigma-Aldrich. Chromatograms were analyzed using the software Lab Solutions (Shimadzu).

[1] = brain, females, total dose 10 mg/kg bw, n 1
[2] = brain, females, total dose 30 mg/kg bw
[3] = brain, females, total dose 300 mg/kg bw
[4] = brain, females, total dose 1000 mg/kg bw
[5] = brain, males, total dose 10 mg/kg bw
[6] = brain, males, total dose 30 mg/kg bw
[7] = brain, males, total dose 300 mg/kg bw
[8] = brain, males, total dose 1000 mg/kg bw

Question: With Clc1cc(Cl)c(-c2cc(Cl)c(Cl)c(Cl)c2Cl)cc1Cl [PCB 180, 2,2′,3′,4,4′,5,5′-heptachlorobiphenyl] as the compound, how does the “Amino acid concentration in cerebrum vs controls” value (both genders, 10, 30, 300 or 1000 mg/kg bw) read?
Answer: The value was “did not show significant differences”.

Question: And the Alanine [1]?
Answer: The Alanine was 14.25 nmol/mg protein.

Question: What about the Aspartate [1] of the same compound?
Answer: The Aspartate was 71.05 nmol/mg protein.

Question: What about the Glutamate [1] of the same compound?
Answer: The Glutamate was 124 nmol/mg protein.

Question: And the Glutamine [1]?
Answer: The Glutamine was 85.95 nmol/mg protein.

Question: What about the Glutathione [1] of the same compound?
Answer: The Glutathione was 16.96 nmol/mg protein.

Question: And the Glycine [1]?
Answer: The Glycine was 43.99 nmol/mg protein.

Question: And the Serine [1]?
Answer: Its Serine is 17.81 nmol/mg protein.

Question: And the Taurine [1]?
Answer: Its Taurine is 113.1 nmol/mg protein.

Question: What about the γ-Amino butyric acid [1] of the same compound?
Answer: Its γ-Amino butyric acid is 42.71 nmol/mg protein.

Question: And the Alanine [2]?
Answer: Its Alanine is 12.67 nmol/mg protein.

Question: What about the Aspartate [2] of the same compound?
Answer: The Aspartate was 60.52 nmol/mg protein.

Question: And the Glutamate [2]?
Answer: Its Glutamate is 110 nmol/mg protein.

Question: What about the Glutamine [2] of the same compound?
Answer: The Glutamine was 82.24 nmol/mg protein.

Question: And the Glutathione [2]?
Answer: Its Glutathione is 12.19 nmol/mg protein.

Question: And the Glycine [2]?
Answer: Its Glycine is 43.93 nmol/mg protein.

Question: And the Serine [2]?
Answer: The Serine was 17.02 nmol/mg protein.

Question: What about the Taurine [2] of the same compound?
Answer: Its Taurine is 98.12 nmol/mg protein.

Question: And the γ-Amino butyric acid [2]?
Answer: Its γ-Amino butyric acid is 40.16 nmol/mg protein.

Question: And the Alanine [3]?
Answer: The Alanine was 13.51 nmol/mg protein.

Question: What about the Aspartate [3] of the same compound?
Answer: Its Aspartate is 61.77 nmol/mg protein.

Question: What about the Glutamate [3] of the same compound?
Answer: The Glutamate was 111 nmol/mg protein.

Question: And the Glutamine [3]?
Answer: The Glutamine was 87.85 nmol/mg protein.

Question: And the Glutathione [3]?
Answer: Its Glutathione is 11.70 nmol/mg protein.

Question: What about the Glycine [3] of the same compound?
Answer: The Glycine was 48.50 nmol/mg protein.

Question: And the Serine [3]?
Answer: The Serine was 17.18 nmol/mg protein.

Question: What about the Taurine [3] of the same compound?
Answer: Its Taurine is 95.21 nmol/mg protein.

Question: What about the γ-Amino butyric acid [3] of the same compound?
Answer: Its γ-Amino butyric acid is 41.47 nmol/mg protein.

Question: What about the Alanine [4] of the same compound?
Answer: The Alanine was 13.04 nmol/mg protein.

Question: And the Aspartate [4]?
Answer: The Aspartate was 59.40 nmol/mg protein.

Question: And the Glutamate [4]?
Answer: Its Glutamate is 109 nmol/mg protein.

Question: And the Glutamine [4]?
Answer: The Glutamine was 79.65 nmol/mg protein.

Question: What about the Glutathione [4] of the same compound?
Answer: The Glutathione was 10.79 nmol/mg protein.

Question: What about the Glycine [4] of the same compound?
Answer: Its Glycine is 43.12 nmol/mg protein.

Question: And the Serine [4]?
Answer: The Serine was 16.71 nmol/mg protein.

Question: What about the Taurine [4] of the same compound?
Answer: Its Taurine is 97.62 nmol/mg protein.

Question: What about the γ-Amino butyric acid [4] of the same compound?
Answer: The γ-Amino butyric acid was 40.90 nmol/mg protein.

Question: What about the Alanine [5] of the same compound?
Answer: The Alanine was 11.68 nmol/mg protein.

Question: What about the Aspartate [5] of the same compound?
Answer: The Aspartate was 59.00 nmol/mg protein.

Question: And the Glutamate [5]?
Answer: Its Glutamate is 110 nmol/mg protein.

Question: What about the Glutamine [5] of the same compound?
Answer: The Glutamine was 81.50 nmol/mg protein.

Question: And the Glutathione [5]?
Answer: The Glutathione was 12.48 nmol/mg protein.

Question: What about the Glycine [5] of the same compound?
Answer: Its Glycine is 38.78 nmol/mg protein.

Question: And the Serine [5]?
Answer: Its Serine is 17.39 nmol/mg protein.

Question: What about the Taurine [5] of the same compound?
Answer: The Taurine was 93.04 nmol/mg protein.

Question: What about the γ-Amino butyric acid [5] of the same compound?
Answer: The γ-Amino butyric acid was 36.29 nmol/mg protein.

Question: What about the Alanine [6] of the same compound?
Answer: Its Alanine is 12.16 nmol/mg protein.

Question: And the Aspartate [6]?
Answer: Its Aspartate is 60.01 nmol/mg protein.

Question: What about the Glutamate [6] of the same compound?
Answer: The Glutamate was 106 nmol/mg protein.

Question: And the Glutamine [6]?
Answer: The Glutamine was 68.58 nmol/mg protein.

Question: And the Glutathione [6]?
Answer: The Glutathione was 11.48 nmol/mg protein.

Question: And the Glycine [6]?
Answer: Its Glycine is 38.07 nmol/mg protein.

Question: And the Serine [6]?
Answer: Its Serine is 16.11 nmol/mg protein.

Question: What about the Taurine [6] of the same compound?
Answer: The Taurine was 93.22 nmol/mg protein.

Question: And the γ-Amino butyric acid [6]?
Answer: The γ-Amino butyric acid was 36.82 nmol/mg protein.

Question: What about the Alanine [7] of the same compound?
Answer: Its Alanine is 13.02 nmol/mg protein.

Question: What about the Aspartate [7] of the same compound?
Answer: Its Aspartate is 58.39 nmol/mg protein.

Question: And the Glutamate [7]?
Answer: Its Glutamate is 111 nmol/mg protein.

Question: And the Glutamine [7]?
Answer: Its Glutamine is 76.57 nmol/mg protein.

Question: What about the Glutathione [7] of the same compound?
Answer: The Glutathione was 10.37 nmol/mg protein.

Question: And the Glycine [7]?
Answer: The Glycine was 39.90 nmol/mg protein.

Question: And the Serine [7]?
Answer: The Serine was 17.20 nmol/mg protein.

Question: And the Taurine [7]?
Answer: The Taurine was 95.86 nmol/mg protein.

Question: What about the γ-Amino butyric acid [7] of the same compound?
Answer: Its γ-Amino butyric acid is 36.14 nmol/mg protein.

Question: What about the Alanine [8] of the same compound?
Answer: Its Alanine is 12.29 nmol/mg protein.

Question: What about the Aspartate [8] of the same compound?
Answer: The Aspartate was 54.56 nmol/mg protein.

Question: What about the Glutamate [8] of the same compound?
Answer: Its Glutamate is 103 nmol/mg protein.

Question: And the Glutamine [8]?
Answer: Its Glutamine is 72.52 nmol/mg protein.

Question: What about the Glutathione [8] of the same compound?
Answer: Its Glutathione is 9.97 nmol/mg protein.

Question: And the Glycine [8]?
Answer: Its Glycine is 40.40 nmol/mg protein.

Question: What about the Serine [8] of the same compound?
Answer: Its Serine is 16.45 nmol/mg protein.

Question: And the Taurine [8]?
Answer: Its Taurine is 88.63 nmol/mg protein.

Question: What about the γ-Amino butyric acid [8] of the same compound?
Answer: Its γ-Amino butyric acid is 35.69 nmol/mg protein.

Question: And the “Glutathione, trend over total doses” value (brain, males, total doses 0-1000 mg/kg bw)?
Answer: The value was “T”.

Question: And the “Cerebrum glutathione concentration, max. decrease” value (males, at 1000 mg/kg)?
Answer: The value was 18%.
